{
  "source": "patent US9248108B2",
  "about": "(Ottawa Hospital Research Institute, priority 2012, dated 2016)",
  "key": {"[1]": {"system": "2-cell embryos of young CF1 mice", "experiment": "DFMO in mouse drinking water prior to mating, 2-cell embryo karyotyping", "type": "in vivo", "experimental": "Table 10 DFMO in mouse drinking water increases hyperploid 2-cell embryos. Young (7-8 weeks) CF1 mice were treated with regular water (control), or 1% DFMO drinking water for 48 h, prior to mating (see FIG. 5 for details). Embryos (2-cell) were isolated and subjected to karyotype analyses. N: Total interpretable 2-cell embryos. Euploid: 40 chromosomes in each of the two blastomeres, or 40 chromosomes in one blastomere with the other blastomere having less than 40 chromosomes or uninterpretable/lost. Hypoploid: 39 chromosomes in each of the two blastomeres, or 39 in one blastomere with the other less than 39 or uninterpretable/lost. Hyperploid: 41 chromosomes in at least one blastomere (we found no 42 or more chromosomes in this study). Detailed breakdowns are in Table 11.\nTo produce 2-cell embryos, mice were sequentially injected with eCG and hCG, as above for ovulation. After hCG injection, the females were caged singly with fertile young males overnight. For mice that were treated with 1% DFMO, the drug was withdrawn, and normal water resumed, at the time of hCG injection (see […] for details). The females were separated from the males in the next morning (day 1 post coital or p.c.). Females were euthanized in the late morning on day 2 p.c., and the embryos were collected by flushing the oviducts with M2 medium. After three rinses in KSOM medium, the embryos were cultured 17 h in KSOM containing 0.02 μg/ml colchicine to cause metaphase arrest of the 2-cell embryos.\n(§1) Decoding was done after karyotypes were tabulated."}, "[2]": {"system": "young (7-8 weeks) CF1 mice", "experiment": "DFMO in mouse drinking water, karyotyping of oviduct-derived metaphase II eggs", "type": "in vivo", "excerpt": "The effect of DFMO on egg aneuploidy in vivo was also examined. […] Oviduct-derived metaphase II eggs, from control mice and DFMO treated mice, were subjected to karyotype analyses. In these and all subsequent egg karyotype analyses, anti-CREST antibodies were used to label centromeres (Hodges & Hunt, 2002), in addition to DNA staining. This modification allowed unambiguous identification of single sister chromatid(s) in metaphase II eggs, termed premature separation of sister chromatids (PSSC), the predominant form of mouse egg aneuploidies found in this study (see Table 3).\nHypoploid: 18-19 dyads. Euploid: 20 dyads. Hyperploid: 21 or 22 dyads. […] Aneuploid: 2×hyperploid+PSSC. Detailed breakdowns are in Table 7.\nIn order to collect mature (metaphase II) oocytes in vivo (ovulation experiments) each mouse was injected with 5 IU human chorionic gonadotropin (hCG) intraperitoneally 44-46 h after eCG priming. The animals were euthanized 16-18 h after hCG injection and MII eggs were flushed out of oviducts in M2 medium and subjected to karyotype analyses as described below. For mice that were treated with 1% DFMO in drinking water, the drugs were present until the time of euthanization (see FIG. 4 for details).\nas §1"}, "ovarian ODC": {"biological_target": "T1, ovarian ODC (Mus musculus, UniProt P00860)", "T1 construct": "The ovarian homogenates were centrifuged at 16,000×g for 10 min; Supernatants were applied to ODC assays; from tissue; host or cells: mouse ovary (C57BL/6, 8 weeks old, hCG-stimulated), homogenate supernatant", "T1 sequence (P00860 1-461)": "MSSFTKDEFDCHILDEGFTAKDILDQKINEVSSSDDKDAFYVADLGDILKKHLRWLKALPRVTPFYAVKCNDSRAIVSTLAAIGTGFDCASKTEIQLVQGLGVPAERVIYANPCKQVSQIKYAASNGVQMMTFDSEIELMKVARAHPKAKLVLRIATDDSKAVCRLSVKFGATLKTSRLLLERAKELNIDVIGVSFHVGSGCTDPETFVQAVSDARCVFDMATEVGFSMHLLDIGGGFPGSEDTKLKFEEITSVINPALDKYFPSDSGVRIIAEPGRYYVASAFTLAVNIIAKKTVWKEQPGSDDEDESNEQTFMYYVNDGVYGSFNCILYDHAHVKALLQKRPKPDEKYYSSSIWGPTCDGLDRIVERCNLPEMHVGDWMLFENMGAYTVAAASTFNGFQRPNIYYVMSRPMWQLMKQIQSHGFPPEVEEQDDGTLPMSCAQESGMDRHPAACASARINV", "experiment": "Ovarian ODC activity assay", "type": "in vivo", "conditions": "1% DFMO in drinking water, hCG-stimulated 8-week-old mice", "protocol": "After 44-46 h eCG priming, or 6 h following the subsequent hCG injection, the ovaries were collected into Eppendorf tubes and frozen at −80° C. immediately till use. The ovaries were weighed and minced with optical scissors. Lysis buffer (25 mM Tris/HCl pH 7.2, 2 mM dithiothreitol, 0.1 mM EDTA, 0.25 M sucrose, 0.1% Triton X-100 (v/v); modified from Bastida et al. (Bastida et al., 2005) was added 25 μL per mg ovarian tissues and the resulting suspension homogenized by sonication (Fisher Sonic Demembrator, New York, USA) for 20 seconds thrice. The ovarian homogenates were centrifuged at 16,000×g for 10 min. Supernatants were applied to ODC assays (Zhou et al., 2009) in microtiter plates, each well containing 50 μL of lysate, plus 0.1 mM pyridoxyl-5-phosphate and 0.5 μCi (57.1 mCi/mmol) of 14C-labeled ornithine (PerkinElmer, Boston, Mass.). The wells were tightly covered with 3MM paper pre-wet in freshly prepared water-saturated Ba(OH)2. The wells were incubated 1 h at 37° C. ^14CO2 released from decarboxylation reaction formed Ba^14CO3 precipitates on filter. […] The Storage phosphor screen was then scanned on Typhoon™ imaging system (GE Healthcare Life Sciences), resulting in digital images that were then quantified by Image Quant5.2 (GE Healthcare Life Sciences). ODC activity is expressed as relative light intensity in arbitrary units."}, "[3]": {"system": "GV oocytes from young hybrid F1 females (C57BL/6 x SPRET/Ei)", "experiment": "IVM of GV oocytes from young hybrid F1 females, metaphase II egg karyotyping", "type": "cell-based, mouse", "conditions": "17 h IVM, 5 mM DFMO", "experimental": "Table 8 DFMO increases the egg aneuploidy rate of young hybrid F1 females. GV oocytes isolated from young (7-8 weeks) hybrid F1 females, via crossing C57BL/6 females and SPRET/Ei males, were incubated for 17 h in αMEM (control) or αMEM containing 5 mM DFMO. […] Hypoploid: 18-19 dyads. Euploid: 20 dyads. Hyperploid: 21 or 22 dyads. […] Aneuploid: 2×hyperploid+PSSC. Detailed breakdowns are in Table 9.\nTwo other mouse models were additionally used. First, DFMO was tested as a potential treatment to […] egg aneuploidy in the hybrid F1 females that has a high baseline aneuploidy rate similar to human (Koehler et al., 2006).\nas §1"}, "ovarian polyamines": {"system": "ovarian polyamines", "experiment": "Ovarian polyamine quantification by ion chromatography", "type": "in vivo, mouse", "conditions": "1% DFMO in drinking water for 48 hours up to sacrifice", "experimental": "A Dionex ion chromatography system was used to analyze polyamines during ovulation. This system employs an online conductivity detector coupled with an anion suppressor such that only cations are detected. Ovaries were extracted in 5% trichloric acid (TCA) followed by extraction with diethyl ether. The TCA extracts were diluted in water before being applied to the ion chromatography system.\nPolyamines from ovarian samples were determined by ion chromatography (IC) system (Rey and Pohl, 2003. J. Chromatography A 997:199-206). Ovaries were collected immediately after animal sacrifice and stored at −80° C. until use. The samples were thawed and minced, and then 5% trichloroacetic acid (TCA) was added (20 μl/mg). The samples were ultra-sonicated 30 seconds thrice. After centrifugation, the supernatants were extracted twice with diethyl ether. The mouse blood was collected in a tube containing 1 iu/ml heparin (LEO). After centrifugation, the supernatant (plasma) was collected and 10% TCA was added by 1:1 in volume. These plasma samples were extracted twice with diethyl ether, as noted above. The extracts were diluted 10 times in water for polyamine analysis on Dionex Ion ICS-2100 system (Thermo scientific, Dionex, Sunnyvale, Calif., USA) according to the manufacture instructions, using the support software of PeakNet 6.40 SP5 Build 778."}, "[4]": {"system": "GV oocytes from 7-8-week-old CF1 mice", "experiment": "In vitro maturation (IVM) of GV oocytes from young CF1 mice, metaphase II egg karyotyping (chromosome staining only)", "type": "cell-based, mouse", "protocol": "Immature mouse oocytes (a.k.a. “GV oocytes” for the presence of intact germinal vesicle) from young CF1 mice (7-8 weeks of age) were cultured in medium (control) or medium containing 5 mM DFMO (Garcia-Faroldi et al., 2009).\nAll metaphase II eggs were subjected to karyotype analyses and counted spreads that contained 18 or more chromosomes and in which all chromosomes were close together, to eliminate over-spread karyotypes. Only hyperploid eggs, those containing 21 or more chromosomes, were considered aneuploid, to avoid artifacts due to loss of chromosomes during preparation of chromosome spreads (Koehler et al., 2006). In this set of experiments, in which only DNA staining was employed, hyperploid oocytes that contained extra whole chromosomes (dyads) were not distinguished from those that contained separated sister(s), because it is often difficult to differentiate a small chromosome dyad and a single sister in telocentric chromosomes such as in mouse.\nMetaphase II eggs were karyotyped with chromosome staining only. N: total number of interpretable metaphase II spreads, with 18 or more chromosomes. Hypoploid: 18-19 chromosomes. Euploid: 20 chromosomes. Hyperploid: 21 chromosomes.\nMice were euthanized by cervical dislocation 44-46 h after they were primed with 5 IU equine chorionic gonadotropin (eCG) intraperitonally. […] Ovaries were immediately removed and minced in M2 medium (Sigma; unless otherwise indicated, other chemicals used in this study were also purchased from Sigma) to release oocytes. Oocytes with a clear germinal vesicle (GV) were used for in vitro maturation (IVM) for 17 hours in IVM medium (αMEM medium supplemented with 5% fetal bovine serum and 1 mM L-glutamine) overlaid with mineral oil.\nChromosome spread was carried out according to Hodges and Hunt (Hodges & Hunt, 2002) with minor modifications. In brief, oocytes or 2-cell embryos were collected in M2 medium. The zona pellucida was removed by treatment with 0.5 units/μl pronase at 37° C. for 20 sec. Zona-free oocytes/embryos were rinsed in M2 medium to detach polar bodies. The oocytes/embryos were individually plated onto glass slides (1-10 oocytes/embryos per slide) predipped in the fixative (prepared weekly and stored at 4° C.) containing 1% paraformaldehyde (w/v), 0.15% Triton X-100 (v/v), and 3 mM dithiothreitol, pH 9.2. Slides were kept overnight in moist boxes at room temperature. The slides were then rinsed in 0.5% Kodak Flo (Eastman Kodak Company, Rochester, N.Y.) solution and air-dried. The slides were incubated in 1:200 diluted human anti-centromere serum (Immunovision, Springdale, Ark.) in PBS containing 1% BSA overnight at 4° C., in 1:300 diluted secondary antibody (goat anti-human) conjugated with rhodamine (Jackson ImmunoResearch) in PBS-BSA for 1 h at room temperature, and 0.1% SYTOX green (Invitrogen, Eugene, Oreg.) in PBS for 30 min at room temperature. To avoid bias, the slides were coded by a colleague before being examined by an investigator using epifluorescence microscopy and photographed. Decoding was done after karyotypes were tabulated."}, "[5]": {"conditions": "number of 2-cell embryos, 1% DFMO drinking water 48 h prior to mating"}, "[6]": {"conditions": "percent of interpretable 2-cell embryos, 1% DFMO drinking water 48 h"}, "[7]": {"conditions": "number of ovulated MII eggs, 1% DFMO drinking water 48 h"}},
  "note": "Marks after values point to notes of the source that are not given here.",
  "data": [
    {"compound": "NCCC[C@](N)(C(=O)O)C(F)F", "note": "[DFMO, α-difluoromethylornithine]", "values": [
      {"measurement": "Euploid 40", "setting": "[1]; [5]", "value": 38},
      {"measurement": "Hyperploid 41", "setting": "[1]; [5]", "value": 5},
      {"measurement": "Hypoploid 39", "setting": "[1]; [5]", "value": 5},
      {"measurement": "Euploid 40", "setting": "[1]; [6]", "value": 79.2, "unit": "%"},
      {"measurement": "Hyperploid 41", "setting": "[1]; [6]", "value": 10.4, "unit": "%"},
      {"measurement": "Hypoploid 39", "setting": "[1]; [6]", "value": 10.4, "unit": "%"},
      {"measurement": "% Hyperploidy", "setting": "[2]; 1% DFMO drinking water 48 h", "value": "1.1** %"},
      {"measurement": "number of MII eggs collected from the oviducts", "setting": "[2]; 1% DFMO drinking water, n=37", "value": "29.3 /mouse"},
      {"measurement": "% Aneuploidy", "setting": "[2]; Aneuploid: 2×hyperploid+PSSC, 1% DFMO drinking water 48 h", "value": 7.7, "unit": "%"},
      {"measurement": "PSSC", "setting": "[2]; number of eggs with separated sister chromatid(s), 1% DFMO drinking water 48 h", "value": "14*"},
      {"measurement": "Eupoloid 20", "setting": "[2]; [7]", "value": 191},
      {"measurement": "Hyperploid 21", "setting": "[2]; [7]", "value": 3},
      {"measurement": "Hyperploid 22", "setting": "[2]; [7]", "value": 0},
      {"measurement": "Hypoploid 18", "setting": "[2]; [7]", "value": 12},
      {"measurement": "Hypoploid 19", "setting": "[2]; [7]", "value": 41},
      {"measurement": "ovarian ODC activity", "setting": "ovarian ODC", "value": "efficiently inhibited"},
      {"measurement": "% Hyperploidy", "setting": "[3]", "value": "2.5** %"},
      {"measurement": "% Aneuploidy", "setting": "[3]; Aneuploid: 2×hyperploid+PSSC", "value": 22.5, "unit": "%"},
      {"measurement": "Euploid 20", "setting": "[3]; number of MII eggs", "value": 50},
      {"measurement": "Hyperploid 21", "setting": "[3]; number of MII eggs", "value": 2},
      {"measurement": "Hyperploid 22", "setting": "[3]; number of MII eggs", "value": 0},
      {"measurement": "Hypoploid 18", "setting": "[3]; number of MII eggs", "value": 5},
      {"measurement": "Hypoploid 19", "setting": "[3]; number of MII eggs", "value": 9},
      {"measurement": "PSSC", "setting": "[3]; number of MII eggs", "value": "14*"},
      {"measurement": "hCG-mediated ovarian putrescine increase", "setting": "ovarian polyamines", "value": "completely eliminated"},
      {"measurement": "first polar body emission", "setting": "[4]; 5 mM DFMO in IVM medium, 776/945", "value": 82, "unit": "%"},
      {"measurement": "% Hyperploidy", "setting": "[4]; 17 h IVM, 5 mM", "value": "4.9 * %"},
      {"measurement": "Hypoploid 18", "setting": "[4]; number of MII eggs with 18 chromosomes, 17 h IVM, 5 mM each agent in αMEM", "value": 2},
      {"measurement": "Hypoploid 19", "setting": "[4]; number of MII eggs with 19 chromosomes, 17 h IVM, 5 mM", "value": 18},
      {"measurement": "Eupoloid 20", "setting": "[4]; number of MII eggs with 20 chromosomes, 17 h IVM, 5 mM", "value": 175},
      {"measurement": "Hyperploid 21", "setting": "[4]; number of MII eggs with 21 chromosomes, 17 h IVM, 5 mM", "value": 10},
      {"measurement": "Hyperploid 22", "setting": "[4]; number of MII eggs with 22 chromosomes, 17 h IVM, 5 mM", "value": 0}
    ]}
  ]
}
